#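 All cell lines were grown in 96-well plates and treated with compound for 48 hours. Here, GI50 denotes the concentration required for 50% inhibition of growth. The concentration for full growth arrest is given as TGI.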
# Tests used:
# Assay in all cases: NCI-60 cell line screen, 48 h
# 786-0 renal = tested on: 786-0 renal
# A498 renal = tested on: A498 renal
# A549 NSCLC = tested on: A549 NSCLC
# ACHN renal = tested on: ACHN renal
# BT-549 breast = tested on: BT-549 breast
# CAKI-1 renal = tested on: CAKI-1 renal
# CCRF-CEM leukemia = tested on: CCRF-CEM leukemia
# COLO 205 colon = tested on: COLO 205 colon
# DU-145 prostate = tested on: DU-145 prostate
# EKVX NSCLC = tested on: EKVX NSCLC
# HCC-2998 colon = tested on: HCC-2998 colon
# HCT-116 colon = tested on: HCT-116 colon
# HCT-15 colon = tested on: HCT-15 colon
# HL-60(TB) leukemia = tested on: HL-60(TB) leukemia
# HOP-62 NSCLC = tested on: HOP-62 NSCLC
# HOP-92 NSCLC = tested on: HOP-92 NSCLC
# HS 578T breast = tested on: HS 578T breast
# IGROV1 ovarian = tested on: IGROV1 ovarian
# K-562 leukemia = tested on: K-562 leukemia
# KM12 colon = tested on: KM12 colon
# LOX IMVI melanoma = tested on: LOX IMVI melanoma
# M14 melanoma = tested on: M14 melanoma
# MALME-3M melanoma = tested on: MALME-3M melanoma
# MCF7 breast = tested on: MCF7 breast
# MDA-MB-231 breast = tested on: MDA-MB-231 breast
# MDA-MB-435 = tested on: MDA-MB-435
# MOLT-4 leukemia = tested on: MOLT-4 leukemia
# NCI-H226 lung = tested on: NCI-H226 lung
# NCI-H23 lung = tested on: NCI-H23 lung
# NCI-H460 lung = tested on: NCI-H460 lung
# NCI-H522 lung = tested on: NCI-H522 lung
# NCI/ADR-RES ovarian = tested on: NCI/ADR-RES ovarian
# OVCAR-3 ovarian = tested on: OVCAR-3 ovarian
# OVCAR-4 ovarian = tested on: OVCAR-4 ovarian
# OVCAR-5 ovarian = tested on: OVCAR-5 ovarian
# OVCAR-8 ovarian = tested on: OVCAR-8 ovarian
# PC-3 prostate = tested on: PC-3 prostate
# RPMI-8226 leukemia = tested on: RPMI-8226 leukemia
# RXF 393 renal = tested on: RXF 393 renal
# SF-268 CNS = tested on: SF-268 CNS
# SF-295 CNS = tested on: SF-295 CNS
# SF-539 CNS = tested on: SF-539 CNS
# SK-MEL-2 melanoma = tested on: SK-MEL-2 melanoma
# SK-MEL-28 melanoma = tested on: SK-MEL-28 melanoma
# SK-MEL-5 melanoma = tested on: SK-MEL-5 melanoma
# SK-OV-3 ovarian = tested on: SK-OV-3 ovarian
# SN12C renal = tested on: SN12C renal
# SNB-19 CNS = tested on: SNB-19 CNS
# SR leukemia = tested on: SR leukemia
# SW-620 colon = tested on: SW-620 colon
# T-47D breast = tested on: T-47D breast
# TK-10 renal = tested on: TK-10 renal
# U251 CNS = tested on: U251 CNS
# UACC-257 melanoma = tested on: UACC-257 melanoma
# UACC-62 melanoma = tested on: UACC-62 melanoma
# UO-31 renal = tested on: UO-31 renal
smiles,measurement,setting,value
c1cc2ccc3cc2cc1CNCCN1CCNCc2ccc4ccc(cc4c2)CNCCN(CCNC3)CCNCc2ccc3ccc(cc3c2)CNCC1,GI50,786-0 renal,10.4 µM
same,TGI,786-0 renal,35.4 µM
same,GI50,A498 renal,10.9 µM
same,TGI,A498 renal,30.4 µM
same,GI50,A549 NSCLC,2.62 µM
same,TGI,A549 NSCLC,> 100 µM
same,GI50,ACHN renal,39.4 µM
same,TGI,ACHN renal,> 100 µM
same,GI50,BT-549 breast,2.51 µM
same,TGI,BT-549 breast,7.77 µM
same,GI50,CAKI-1 renal,41 µM
same,TGI,CAKI-1 renal,> 100 µM
same,GI50,CCRF-CEM leukemia,2.34 µM
same,TGI,CCRF-CEM leukemia,> 100 µM
same,GI50,COLO 205 colon,2.12 µM
same,TGI,COLO 205 colon,6.86 µM
same,GI50,DU-145 prostate,2.1 µM
same,TGI,DU-145 prostate,5.83 µM
same,GI50,EKVX NSCLC,4.84 µM
same,TGI,EKVX NSCLC,> 100 µM
same,GI50,HCC-2998 colon,2.27 µM
same,TGI,HCC-2998 colon,6.4 µM
same,GI50,HCT-116 colon,2.57 µM
same,TGI,HCT-116 colon,8.82 µM
same,GI50,HCT-15 colon,80.1 µM
same,TGI,HCT-15 colon,> 100 µM
same,GI50,HL-60(TB) leukemia,2.32 µM
same,TGI,HL-60(TB) leukemia,5.53 µM
same,GI50,HOP-62 NSCLC,2.99 µM
same,TGI,HOP-62 NSCLC,13.2 µM
same,GI50,HOP-92 NSCLC,1.31 µM
same,TGI,HOP-92 NSCLC,5.41 µM
same,GI50,HS 578T breast,3 µM
same,TGI,HS 578T breast,17.4 µM
same,GI50,IGROV1 ovarian,2.89 µM
same,TGI,IGROV1 ovarian,13.1 µM
same,GI50,K-562 leukemia,1.91 µM
same,TGI,K-562 leukemia,> 100 µM
same,GI50,KM12 colon,2.54 µM
same,TGI,KM12 colon,6.47 µM
same,GI50,LOX IMVI melanoma,2.03 µM
same,TGI,LOX IMVI melanoma,4.42 µM
same,GI50,M14 melanoma,3.27 µM
same,TGI,M14 melanoma,13.1 µM
same,GI50,MALME-3M melanoma,2.11 µM
same,TGI,MALME-3M melanoma,5.58 µM
same,GI50,MCF7 breast,0.392 µM
same,TGI,MCF7 breast,5.15 µM
same,GI50,MDA-MB-231 breast,1.91 µM
same,TGI,MDA-MB-231 breast,6.99 µM
same,GI50,MDA-MB-435,2.41 µM
same,TGI,MDA-MB-435,6.25 µM
same,GI50,MOLT-4 leukemia,2.82 µM
same,TGI,MOLT-4 leukemia,9.35 µM
same,GI50,NCI-H226 lung,2.27 µM
same,TGI,NCI-H226 lung,6.11 µM
same,GI50,NCI-H23 lung,1.98 µM
same,TGI,NCI-H23 lung,5.99 µM
same,GI50,NCI-H460 lung,2.95 µM
same,TGI,NCI-H460 lung,10.8 µM
same,GI50,NCI-H522 lung,0.431 µM
same,TGI,NCI-H522 lung,5.56 µM
same,GI50,NCI/ADR-RES ovarian,> 100 µM
same,TGI,NCI/ADR-RES ovarian,> 100 µM
same,GI50,OVCAR-3 ovarian,2.66 µM
same,TGI,OVCAR-3 ovarian,8.04 µM
same,GI50,OVCAR-4 ovarian,2.89 µM
same,TGI,OVCAR-4 ovarian,7.22 µM
same,GI50,OVCAR-5 ovarian,2.38 µM
same,TGI,OVCAR-5 ovarian,7.96 µM
same,GI50,OVCAR-8 ovarian,3.61 µM
same,TGI,OVCAR-8 ovarian,> 100 µM
same,GI50,PC-3 prostate,2.22 µM
same,TGI,PC-3 prostate,6.99 µM
same,GI50,RPMI-8226 leukemia,1.62 µM
same,TGI,RPMI-8226 leukemia,6.03 µM
same,GI50,RXF 393 renal,17.3 µM
same,TGI,RXF 393 renal,39.4 µM
same,GI50,SF-268 CNS,2.25 µM
same,TGI,SF-268 CNS,6.44 µM
same,GI50,SF-295 CNS,11.9 µM
same,TGI,SF-295 CNS,38.9 µM
same,GI50,SF-539 CNS,1.89 µM
same,TGI,SF-539 CNS,4.87 µM
same,GI50,SK-MEL-2 melanoma,2.36 µM
same,TGI,SK-MEL-2 melanoma,5.89 µM
same,GI50,SK-MEL-28 melanoma,2.42 µM
same,TGI,SK-MEL-28 melanoma,6.32 µM
same,GI50,SK-MEL-5 melanoma,56 µM
same,TGI,SK-MEL-5 melanoma,> 100 µM
same,GI50,SK-OV-3 ovarian,2.8 µM
same,TGI,SK-OV-3 ovarian,8.3 µM
same,GI50,SN12C renal,1.71 µM
same,TGI,SN12C renal,8.57 µM
same,GI50,SNB-19 CNS,2.66 µM
same,TGI,SNB-19 CNS,8.38 µM
same,GI50,SR leukemia,2.13 µM
same,TGI,SR leukemia,7.87 µM
same,GI50,SW-620 colon,3.36 µM
same,TGI,SW-620 colon,> 100 µM
same,GI50,T-47D breast,2.05 µM
same,TGI,T-47D breast,7.54 µM
same,GI50,TK-10 renal,18.6 µM
same,TGI,TK-10 renal,64.8 µM
same,GI50,U251 CNS,1.48 µM
same,TGI,U251 CNS,10.4 µM
same,GI50,UACC-257 melanoma,3.93 µM
same,TGI,UACC-257 melanoma,> 100 µM
same,GI50,UACC-62 melanoma,2.37 µM
same,TGI,UACC-62 melanoma,6.95 µM
same,GI50,UO-31 renal,> 100 µM
same,TGI,UO-31 renal,> 100 µM
